Test results published in patent US9844577B1, “Medicinal composition for prevention or treatment retinal ischemia” (priority 2017, dated 2017).

Key:
Experiment in all cases: Retinal protein level by western blot after retinal ischemia
Type in all cases: in vivo, Wistar rats
[1] = test system: HIF-1α protein; conditions: intravitreal 5 μl 15 min before ischemia: 4 μM Shikonin, 10 μM JIB-04, 100 mg/4 ml Avastin; Vehicle 3.69±0.22
Procedure: (§1) After anesthesia, rats (200-250 g) were placed in a stereotaxic frame. A high intraocular pressure (HIOP) of 120 mmHg for 60 min was induced by cannulating the anterior chamber of one eye of an ischemic rat with a 30-gauge needle connected to an elevated 0.9% saline reservoir. The ischemic insult was confirmed by the detection of a pale eye fundus. In contrast, one eye of a control rat received a sham procedure where the saline reservoir was not elevated.
(§2) An intake of 1.35 or 2.7 g/kg/day XFZYD (Sun Ten Pharmaceutical CO, Taichung, Taiwan) was given for 7 consecutive days before or after HIOP induced retinal ischemia until the rats were sacrificed. The test rat whose eye was subjected to ischemia was fed with the constant volume (4 ml) of XFZYD or the equal volume of vehicle.
(§3) After anesthesia as described, pupil dilation with 1% tropicamide (Alcon, ZG, Switzerland) and 2.5% phenylephrine (Akorn, Inc., IL, USA) as well as surface anesthesia with 0.5% proparacaine (Alcon, ZG, Switzerland), a 30-gauge needle attached to a 25 μl syringe was used to perform intravitreal injections. In certain instances, intravitreal injections 5 μl of 4 μM Shikolin (Sigma-Aldrich, MO, USA), 10 μM JIB-04 (Sigma-Aldrich, MO, USA), 5 μl of 100 mg/4 ml Avastin (Hoffmann-La Roche, Basel, Switzerland) or of vehicle (an equal volume of dimethyl sulfoxide; J. T. Baker, NJ, USA) were performed on ischemic eyes fifteen minutes before pressure induced retinal ischemia.
(§4) Twenty-four hours after retinal ischemia and pre-/post-ischemia administration of the defined chemicals or after a sham procedure, the rats were sacrificed. The retinas were removed and sonicated in lysis buffer, namely mammalian protein extraction reagent (HyCell, Taipei, Taiwan). […] Journal of Ocular Pharmacology and Therapeutics. 2010; 26(5):421-429; Hsiao-Ming Chao, Min-Jay Chuang, Jorn-Hon Liu, Xiao-Qian Liu, Li-Kang Ho, Wynn H. T. Pan, Xiu-Mei Zhang, Chi-Ming Liu, Shen-Kou Tsai, Chi-Woon Kong, Shou-Dong Lee, Mi-Mi Chen, and Fang-Ping Chao. Baicalein protects against retinal ischemia by antioxidation, antiapoptosis, downregulation of HIF-1α, VEGF, and MMP-9 and upregulation of HO-1. Journal of Ocular Pharmacology and Therapeutics. 29(6): 539-549, 2013). The separated proteins were transferred to a polyvinylidene difluoride (PVDF) membrane (Millipore, MA, USA). The membranes were then blocked for 1 hour at room temperature with 5% fat-free skimmed milk (Fonterra, Taoyuan, Taiwan) in phosphate-buffered saline (PBS). Next, the blots were incubated individually overnight at 4° C. with one of the following primary antibodies, namely, mouse monoclonal anti-β-actin antibody (1:80000, Novusbio, MA, USA), mouse monoclonal anti-VEGF antibody (1:200, Novusbio, MA, USA), mouse monoclonal anti-HIF-1α antibody (1:1000, Abcom, Cambridge, UK), rabbit polyclonal anti-PKM2 antibody (1:600, Abcom, Cambridge, UK) and rabbit monoclonal anti-RBP2 antibody (1:500, Abcom, Cambridge, UK). The blots were then incubated in the secondary antibody, either horseradish peroxidase (HRP)-conjugated goat anti-rabbit or antimouse IgG (1:2000 or 1:10000, Santa Cruz Biotechnology, TX, USA) as appropriate at 37° C. for 1 h. The primary/secondary antibodies were diluted in 5% fat-free skimmed milk. Finally, the membranes were developed using the enhanced chemiluminescent analysis system (HyCell, Taipei, Taiwan), and exposed to an X-ray film (Fujifilm, Tokyo, Japan). Scanning densitometry was used to analyze the amount of each protein present.

[2] = test system: PKM2 protein; conditions: intravitreal 5 μl 15 min before ischemia: 4 μM Shikonin, 10 μM JIB-04, 100 mg/4 ml Avastin; Vehicle 4.04±0.50
Procedure: as §1, §2, §3, §4

[3] = test system: VEGF protein; conditions: intravitreal 5 μl 15 min before ischemia: 4 μM Shikonin, 10 μM JIB-04, 100 mg/4 ml Avastin; Vehicle 6.92±1.55
Procedure: as §1, §2, §3, §4

[4] = test system: RBP2 protein; conditions: intravitreal 5 μl 15 min before ischemia: 4 μM Shikonin, 10 μM JIB-04, 100 mg/4 ml Avastin; Vehicle 7.77±2.27
Procedure: as §1, §2, §3, §4

CC(C)=CC[C@@H](O)C1=CC(=O)c2c(O)ccc(O)c2C1=O [Shikonin]
ratio of protein expression level of HIF-1α relative to β-actin [1]: 1.95±0.76
ratio of protein expression level of PKM2 relative to β-actin [2]: 0.61±0.19
ratio of protein expression level of VEGF relative to β-actin [3]: 1.84±0.60
ratio of protein expression level of RBP2 relative to β-actin [4]: 1.00±0.71

Avastin: VEGF antibody (Hoffmann-La Roche)
ratio of protein expression level of HIF-1α relative to β-actin [1]: 3.65±0.84
ratio of protein expression level of PKM2 relative to β-actin [2]: 3.42±0.88
ratio of protein expression level of VEGF relative to β-actin [3]: 1.08±0.23
ratio of protein expression level of RBP2 relative to β-actin [4]: 6.00±3.61

Clc1ccc(N/N=C(\c2ccccc2)c2ccccn2)nc1 [JIB-04]
ratio of protein expression level of HIF-1α relative to β-actin [1]: 2.14±1.11
ratio of protein expression level of PKM2 relative to β-actin [2]: 1.67±1.31
ratio of protein expression level of VEGF relative to β-actin [3]: 1.68±0.46
ratio of protein expression level of RBP2 relative to β-actin [4]: 1.16±0.14
